Among the test systems are DMS 273 small cell lung; DMS 114 small cell lung; KM20L2 colon; LXFL 529 NSCLC; MDA-N; M19-MEL melanoma; HOP-18 NSCLC; DLD-1 colon; RXF-631 renal.
Holding throughout (test): NCI tumour cell line growth inhibition, 48 h

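Test compounds were applied to cells in 96-well plates for 48 hours at 5 doses. GI50 marks 50% less growth. The concentration for full growth arrest is given as TGI.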

As to `CC(SC(=O)Nc1ccc(N=Nc2ccccc2)cc1)C(=O)O` (stereo not drawn), the TGI in the assay on DMS 273 small cell lung, in the assay on DMS 114 small cell lung, with KM20L2 colon and in the assay with LXFL 529 NSCLC was greater than 100 µM each time.

Turning to `Cc1ccc(S(=O)(=O)NC(CN)C(=O)O)cc1` (stereo not drawn), in the assay with MDA-N, the TGI was greater than 100 µM.

Consider `CC(=O)C1=C(O)C2C3c4c[nH]c5cccc(c45)CC3C(C)(C)N2C1=O` (stereo not drawn), for which the TGI was greater than 100 µM with DMS 273 small cell lung; greater than 100 µM with M19-MEL melanoma; 75.8 µM in the assay with HOP-18 NSCLC; greater than 100 µM in the assay with DMS 114 small cell lung; greater than 100 µM in the assay on DLD-1 colon; greater than 100 µM with KM20L2 colon. This molecule yielded a TGI in the assay with LXFL 529 NSCLC greater than 100 µM.

For `C[C@]12CCC3[C@@H](CC[C@@H]4c5nonc5CC[C@]34C)C1CC[C@@H]2O` (stereo partly drawn), the TGI in the assay on RXF-631 renal was greater than 100 µM; with DMS 273 small cell lung, 60.8 µM; in the assay on M19-MEL melanoma it was greater than 100 µM; in the assay on HOP-18 NSCLC, greater than 100 µM; in the assay with DMS 114 small cell lung it was 71.2 µM; in the assay on DLD-1 colon it was 69.4 µM. Moreover, the TGI in the assay with KM20L2 colon and in the assay with LXFL 529 NSCLC was greater than 100 µM in each case.

For the molecule `Cc1c(/C=N/N(C)C)oc2c1cc(O)c1ncccc12`, the TGI in the assay with DMS 273 small cell lung is 37.7 µM; in the assay with HOP-18 NSCLC it was 16 µM; in the assay with DMS 114 small cell lung, 8.59 µM; in the assay with DLD-1 colon, greater than 100 µM; in the assay on KM20L2 colon it was greater than 100 µM; with LXFL 529 NSCLC it was greater than 100 µM.

In the assay on MDA-N, `C=C1C(=O)OC2/C=C(/C)C(OC(C)=O)C/C=C(\C)C(OC(=O)C3(C)OC3C)C(O)C12` (stereo not drawn) had a TGI greater than 100 µM.

With `CC(=O)NC(CC(C)C)C(=O)NC(Cc1ccccc1)C(=S)N1CCCC1` (stereo not drawn), the TGI in the assay on RXF-631 renal, with DMS 273 small cell lung, in the assay on M19-MEL melanoma, in the assay on DMS 114 small cell lung, in the assay with KM20L2 colon and in the assay on LXFL 529 NSCLC was greater than 100 µM in each case.

Take `CC(=O)OC1COC(n2c(=S)n(-c3ccccc3)c(=O)c3ccccc32)C(OC(C)=O)C1OC(C)=O` (stereo not drawn): the TGI with RXF-631 renal, in the assay with DMS 273 small cell lung, with HOP-18 NSCLC, with DMS 114 small cell lung, in the assay with DLD-1 colon and in the assay on KM20L2 colon was greater than 100 µM in each case. Further, the TGI with LXFL 529 NSCLC was greater than 100 µM.

For `O=c1[nH]cnc2c1nnn2CCCCCCCCCCCCn1nnc2c(=O)[nH]cnc21`, the TGI in the assay on DMS 273 small cell lung is greater than 100 µM; in the assay with M19-MEL melanoma, greater than 100 µM; in the assay with HOP-18 NSCLC, greater than 100 µM; with DMS 114 small cell lung, 39.4 µM; with DLD-1 colon, greater than 100 µM; in the assay with KM20L2 colon it was greater than 100 µM. The TGI in the assay on MDA-N and in the assay with LXFL 529 NSCLC was greater than 100 µM in each case.

In the case of `Cc1ccc(S(=O)(=O)N/N=C(/c2nc3ccc([N+](=O)[O-])cc3[nH]c2=O)C(O)c2ccc(C(O)/C(=N\NS(=O)(=O)c3ccc(C)cc3)c3nc4ccc([N+](=O)[O-])cc4[nH]c3=O)cc2)cc1` (stereo not drawn), the TGI with RXF-631 renal, in the assay on DMS 273 small cell lung, in the assay with DMS 114 small cell lung, in the assay with DLD-1 colon, with KM20L2 colon and with LXFL 529 NSCLC was greater than 100 µM in each case.

Turning to `CC(C)(C)C(C#N)(C#N)c1ccc(C(C#N)(C#N)C(C)(C)C)nn1`, the TGI in the assay with RXF-631 renal, with DMS 273 small cell lung, with M19-MEL melanoma, in the assay with DMS 114 small cell lung, in the assay with DLD-1 colon and with KM20L2 colon was greater than 100 µM in each case. In the assay on LXFL 529 NSCLC, this molecule registered a TGI greater than 100 µM.

`COC(=O)C=Cc1ccc2nncnc2c1` (mixture of isomers) had a TGI in the assay with MDA-N of 46.1 µM.

On to `CC(=O)[O][Hg][c]1c(C)c(C)cc(C)c1C`, for which, in the assay on MDA-N, the GI50 was 0.83 µM and the TGI turned out to be 2.08 µM.

For the molecule `Cc1cc(N2CCN(C)CC2)n2nc(-c3ccc(Cl)cc3)nc2n1`, in the assay on MDA-N, the TGI is greater than 100 µM.

In the assay on MDA-N, `CCc1nc(N)nc(N)c1-c1ccc(N2CCNCC2)cc1` gave a TGI greater than 100 µM.

Consider `CC1(C)C(=O)C(C)(C)C1=S`, for which the TGI in the assay with DMS 273 small cell lung, in the assay with M19-MEL melanoma, in the assay on DMS 114 small cell lung, in the assay with DLD-1 colon, in the assay on KM20L2 colon and with LXFL 529 NSCLC was greater than 100 µM each time.

Turning to `N#C/C(=C/NC(=S)c1ccncc1)C(N)=O`, the TGI in the assay with MDA-N is greater than 100 µM.

Turning to `O=C(Nc1nc2c(ncn2C2OC(CO)C(O)C2O)c(=O)[nH]1)c1ccccc1` (stereo not drawn), the TGI in the assay on RXF-631 renal, in the assay on DMS 273 small cell lung, in the assay with M19-MEL melanoma, in the assay with HOP-18 NSCLC, in the assay with DLD-1 colon and in the assay with KM20L2 colon was greater than 100 µM throughout. The molecule further had a TGI in the assay with LXFL 529 NSCLC greater than 100 µM.

For `O=P(O)(O)C1(P(=O)(O)O)CC1`, the TGI in the assay with DMS 273 small cell lung, with M19-MEL melanoma, with DMS 114 small cell lung, in the assay with KM20L2 colon and with LXFL 529 NSCLC was greater than 100 µM each time.

Take `CCCCCCC[CH2][Sn]1([CH2]CCCCCCC)[O]C(=O)c2cccnc2[O]1`: the GI50 in the assay with RXF-631 renal, in the assay with DMS 273 small cell lung, in the assay with M19-MEL melanoma, with DMS 114 small cell lung, in the assay with DLD-1 colon and with KM20L2 colon was greater than 100 µM in each case. In addition, the GI50 in the assay with LXFL 529 NSCLC was greater than 100 µM. The TGI with RXF-631 renal, in the assay on DMS 273 small cell lung, with M19-MEL melanoma, in the assay on DMS 114 small cell lung, with DLD-1 colon and in the assay with KM20L2 colon was greater than 100 µM each time. Also, in the assay on LXFL 529 NSCLC, the TGI was greater than 100 µM.

Regarding `O=S(=O)(c1cnccc1N1CCN(CCO)CC1)N1CCCC1`, the TGI in the assay on MDA-N is greater than 100 µM.

As to `Nc1ncnc2c1ncn2C1CC(OCc2ccccc2[N+](=O)[O-])C(CO)O1` (stereo not drawn), the TGI in the assay on DMS 273 small cell lung is greater than 50 µM; in the assay with M19-MEL melanoma, 48.5 µM; in the assay with HOP-18 NSCLC it was greater than 50 µM; in the assay on DMS 114 small cell lung it was 47.2 µM; in the assay on DLD-1 colon, greater than 50 µM; with KM20L2 colon it was greater than 50 µM. The TGI in the assay with LXFL 529 NSCLC was greater than 50 µM.

As to `Cc1ccc(NC(=O)C(=O)CC(=O)c2sc(Nc3c(C)cccc3C)nc2C)cc1C`, the TGI with MDA-N is greater than 100 µM.

(Values after PubChem BioAssay (NCI).)
